The supplement of paper PMC12463676, “Small-molecule dissolution of stress granules by redox modulation benefits ALS models” (Nature Chemical Biology, 2025)

Columns and labels:
lipoamide = compound: NC(=O)CCCCC1CCSS1 [lipoamide]; experiment: thermal stability z-score vs DMSO; higher = more thermally stabilized by treatment; details: HeLa, lipoamide concentration 100 µM
Method: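 Cellular thermal proteome profiling in HeLa cells. Cells were treated with 100 µM lipoamide for 1 h, with or without 1 mM arsenate for a further 1 h, then heated to ten temperatures (37-66.3 °C), and soluble protein was quantified by TMT mass spectrometry relative to 0.1% DMSO controls. The thermal stability score (sum of log2 fold changes minus the abundance score) was transformed to a z-score; mean of n = 3 experiments.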

potassium arsenate = compound: O=[As]([O-])(O)O.[K+] [potassium arsenate]; experiment: as above; details: HeLa; arsenate concentration 1 mM
Method: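 Cellular thermal proteome profiling in HeLa cells treated with 1 mM arsenate for 1 h (DMSO pretreatment), heated to ten temperatures (37-66.3 °C). Soluble protein was quantified by TMT mass spectrometry relative to DMSO controls; the thermal stability score was transformed to a z-score; mean of n = 3 experiments.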

[1] = arsenate co-treatment: 1 mM arsenate 1 h
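Further: each temperature applied for 3 min, abundance score taken as mean log2 fold change at the two lowest temperatures, z-score obtained by mean subtraction and division by SD.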

Chain of UniProt A5YKK6 (A5YKK6 whole entry): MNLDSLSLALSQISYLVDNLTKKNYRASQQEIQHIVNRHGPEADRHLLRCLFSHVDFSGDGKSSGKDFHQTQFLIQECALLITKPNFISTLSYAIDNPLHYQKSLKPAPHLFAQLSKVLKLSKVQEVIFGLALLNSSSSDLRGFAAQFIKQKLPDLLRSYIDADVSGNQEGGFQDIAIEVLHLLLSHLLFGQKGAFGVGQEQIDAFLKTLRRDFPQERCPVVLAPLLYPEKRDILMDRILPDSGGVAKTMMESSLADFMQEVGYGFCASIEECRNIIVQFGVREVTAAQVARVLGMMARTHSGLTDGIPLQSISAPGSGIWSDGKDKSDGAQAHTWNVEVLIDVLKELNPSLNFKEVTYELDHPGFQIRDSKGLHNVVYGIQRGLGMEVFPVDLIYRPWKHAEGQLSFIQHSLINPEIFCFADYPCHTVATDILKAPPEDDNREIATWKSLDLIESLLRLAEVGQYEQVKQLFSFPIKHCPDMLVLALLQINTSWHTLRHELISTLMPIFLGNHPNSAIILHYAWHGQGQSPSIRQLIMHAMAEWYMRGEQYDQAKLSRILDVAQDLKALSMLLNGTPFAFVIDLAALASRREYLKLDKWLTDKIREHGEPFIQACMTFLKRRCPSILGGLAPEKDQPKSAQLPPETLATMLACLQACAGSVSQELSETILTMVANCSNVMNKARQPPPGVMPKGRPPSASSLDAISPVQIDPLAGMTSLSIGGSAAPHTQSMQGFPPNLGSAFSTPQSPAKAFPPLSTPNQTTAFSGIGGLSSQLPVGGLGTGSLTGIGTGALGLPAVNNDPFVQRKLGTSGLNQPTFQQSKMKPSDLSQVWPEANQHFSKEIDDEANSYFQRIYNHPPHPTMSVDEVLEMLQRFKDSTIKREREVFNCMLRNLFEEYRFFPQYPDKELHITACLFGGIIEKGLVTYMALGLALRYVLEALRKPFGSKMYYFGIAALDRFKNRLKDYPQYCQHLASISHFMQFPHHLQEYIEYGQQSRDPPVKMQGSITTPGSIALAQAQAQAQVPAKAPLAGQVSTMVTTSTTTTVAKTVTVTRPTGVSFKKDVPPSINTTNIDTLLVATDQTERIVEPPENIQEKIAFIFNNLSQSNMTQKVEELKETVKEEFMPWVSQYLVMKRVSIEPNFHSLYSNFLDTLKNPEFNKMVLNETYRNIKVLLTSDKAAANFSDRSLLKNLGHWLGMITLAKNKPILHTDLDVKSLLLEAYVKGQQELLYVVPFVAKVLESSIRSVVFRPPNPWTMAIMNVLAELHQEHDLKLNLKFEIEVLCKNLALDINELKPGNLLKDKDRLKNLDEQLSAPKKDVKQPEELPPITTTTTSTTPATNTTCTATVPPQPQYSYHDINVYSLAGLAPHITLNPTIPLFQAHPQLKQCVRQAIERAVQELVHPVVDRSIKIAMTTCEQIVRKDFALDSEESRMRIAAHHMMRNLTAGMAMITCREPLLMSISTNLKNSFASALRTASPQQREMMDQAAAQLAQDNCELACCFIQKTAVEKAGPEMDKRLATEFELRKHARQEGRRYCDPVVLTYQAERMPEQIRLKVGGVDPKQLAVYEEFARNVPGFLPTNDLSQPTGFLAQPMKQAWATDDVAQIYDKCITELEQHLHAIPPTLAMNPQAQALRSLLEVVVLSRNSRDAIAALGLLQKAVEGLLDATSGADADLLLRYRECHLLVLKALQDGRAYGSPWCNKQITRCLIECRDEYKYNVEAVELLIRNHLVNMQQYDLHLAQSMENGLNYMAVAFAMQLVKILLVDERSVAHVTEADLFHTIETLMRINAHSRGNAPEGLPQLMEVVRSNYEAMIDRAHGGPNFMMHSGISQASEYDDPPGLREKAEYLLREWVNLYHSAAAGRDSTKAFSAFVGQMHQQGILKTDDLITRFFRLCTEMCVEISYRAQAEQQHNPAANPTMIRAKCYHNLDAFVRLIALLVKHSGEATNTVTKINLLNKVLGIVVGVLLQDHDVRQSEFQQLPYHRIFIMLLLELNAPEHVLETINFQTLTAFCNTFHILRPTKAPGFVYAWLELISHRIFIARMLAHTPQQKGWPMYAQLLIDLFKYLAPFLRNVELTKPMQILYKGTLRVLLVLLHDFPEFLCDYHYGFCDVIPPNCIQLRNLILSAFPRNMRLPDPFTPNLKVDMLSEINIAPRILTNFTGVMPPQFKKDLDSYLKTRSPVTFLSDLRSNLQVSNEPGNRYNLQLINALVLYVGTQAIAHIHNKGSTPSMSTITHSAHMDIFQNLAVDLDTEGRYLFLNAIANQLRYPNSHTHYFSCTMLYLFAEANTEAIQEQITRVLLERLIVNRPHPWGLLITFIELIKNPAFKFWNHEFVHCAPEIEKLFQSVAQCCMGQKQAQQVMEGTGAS
Chain of UniProt P29084 (P29084 whole entry): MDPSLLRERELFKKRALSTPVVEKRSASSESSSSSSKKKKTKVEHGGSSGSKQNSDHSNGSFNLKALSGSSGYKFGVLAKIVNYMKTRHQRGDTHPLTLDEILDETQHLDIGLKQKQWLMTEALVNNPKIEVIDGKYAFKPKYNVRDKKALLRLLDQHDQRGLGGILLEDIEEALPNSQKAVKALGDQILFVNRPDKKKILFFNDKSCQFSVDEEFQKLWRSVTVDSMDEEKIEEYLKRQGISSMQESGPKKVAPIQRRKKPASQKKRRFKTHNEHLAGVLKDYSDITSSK
Chain of UniProt Q9NYS0 (Q9NYS0 whole entry): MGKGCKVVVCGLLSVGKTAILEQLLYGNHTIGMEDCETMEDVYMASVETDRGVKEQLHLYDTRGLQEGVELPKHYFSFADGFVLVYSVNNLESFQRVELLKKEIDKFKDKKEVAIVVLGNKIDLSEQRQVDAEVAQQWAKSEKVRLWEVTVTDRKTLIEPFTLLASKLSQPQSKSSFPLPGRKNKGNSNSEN
Chain of UniProt Q14241 (Q14241 whole entry): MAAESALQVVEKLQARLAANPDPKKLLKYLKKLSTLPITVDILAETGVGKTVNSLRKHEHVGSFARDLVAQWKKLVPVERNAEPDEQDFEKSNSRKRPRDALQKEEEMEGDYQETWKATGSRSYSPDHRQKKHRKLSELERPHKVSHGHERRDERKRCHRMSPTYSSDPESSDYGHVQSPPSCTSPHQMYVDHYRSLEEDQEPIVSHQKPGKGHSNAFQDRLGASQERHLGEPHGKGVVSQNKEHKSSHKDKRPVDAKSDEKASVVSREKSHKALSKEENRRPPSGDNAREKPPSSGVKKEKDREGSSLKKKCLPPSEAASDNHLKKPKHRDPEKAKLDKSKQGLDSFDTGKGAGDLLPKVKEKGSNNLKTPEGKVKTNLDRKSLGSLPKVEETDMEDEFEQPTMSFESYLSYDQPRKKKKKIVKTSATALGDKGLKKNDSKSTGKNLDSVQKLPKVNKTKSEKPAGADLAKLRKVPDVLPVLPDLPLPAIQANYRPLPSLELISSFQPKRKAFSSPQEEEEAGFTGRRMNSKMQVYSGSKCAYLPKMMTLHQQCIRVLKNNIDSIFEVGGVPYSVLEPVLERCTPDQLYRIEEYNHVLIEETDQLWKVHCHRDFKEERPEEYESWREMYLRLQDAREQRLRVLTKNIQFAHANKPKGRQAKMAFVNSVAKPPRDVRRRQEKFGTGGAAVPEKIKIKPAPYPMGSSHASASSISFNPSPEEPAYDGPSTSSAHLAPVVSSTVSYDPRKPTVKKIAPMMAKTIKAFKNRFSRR
Chain of UniProt Q8NEY8 (Q8NEY8 whole entry): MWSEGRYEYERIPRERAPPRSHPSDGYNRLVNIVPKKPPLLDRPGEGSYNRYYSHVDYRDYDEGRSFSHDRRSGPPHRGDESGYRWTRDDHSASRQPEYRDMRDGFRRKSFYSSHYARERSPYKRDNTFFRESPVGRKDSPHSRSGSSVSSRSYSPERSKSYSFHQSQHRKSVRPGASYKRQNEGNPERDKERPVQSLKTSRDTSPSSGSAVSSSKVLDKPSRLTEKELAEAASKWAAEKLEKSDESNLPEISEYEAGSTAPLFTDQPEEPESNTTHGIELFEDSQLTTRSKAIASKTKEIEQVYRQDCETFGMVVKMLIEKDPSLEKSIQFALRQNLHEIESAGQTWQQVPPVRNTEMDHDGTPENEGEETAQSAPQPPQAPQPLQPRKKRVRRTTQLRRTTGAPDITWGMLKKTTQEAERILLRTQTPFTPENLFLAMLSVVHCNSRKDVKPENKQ
Chain of UniProt Q9NXD2 (Q9NXD2 whole entry): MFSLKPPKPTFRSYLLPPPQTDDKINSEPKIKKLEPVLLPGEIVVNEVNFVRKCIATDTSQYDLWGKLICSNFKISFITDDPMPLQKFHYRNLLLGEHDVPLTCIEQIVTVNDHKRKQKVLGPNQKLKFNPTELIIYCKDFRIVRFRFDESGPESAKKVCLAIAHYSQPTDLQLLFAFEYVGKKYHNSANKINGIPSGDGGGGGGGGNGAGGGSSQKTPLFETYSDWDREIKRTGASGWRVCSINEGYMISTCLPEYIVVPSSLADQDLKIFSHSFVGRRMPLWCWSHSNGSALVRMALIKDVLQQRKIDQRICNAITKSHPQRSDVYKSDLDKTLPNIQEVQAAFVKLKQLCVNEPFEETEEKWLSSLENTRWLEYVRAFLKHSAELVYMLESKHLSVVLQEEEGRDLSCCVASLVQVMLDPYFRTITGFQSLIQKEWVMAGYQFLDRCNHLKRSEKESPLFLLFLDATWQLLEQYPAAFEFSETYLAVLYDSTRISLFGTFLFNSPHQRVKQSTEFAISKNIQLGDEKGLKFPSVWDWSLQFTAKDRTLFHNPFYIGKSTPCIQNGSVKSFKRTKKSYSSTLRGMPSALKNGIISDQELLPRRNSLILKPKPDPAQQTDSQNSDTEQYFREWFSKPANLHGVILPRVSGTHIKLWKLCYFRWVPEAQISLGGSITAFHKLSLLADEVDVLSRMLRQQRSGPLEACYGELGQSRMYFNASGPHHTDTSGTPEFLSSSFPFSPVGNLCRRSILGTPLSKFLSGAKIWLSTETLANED
Chain of UniProt Q13158 (Q13158 whole entry): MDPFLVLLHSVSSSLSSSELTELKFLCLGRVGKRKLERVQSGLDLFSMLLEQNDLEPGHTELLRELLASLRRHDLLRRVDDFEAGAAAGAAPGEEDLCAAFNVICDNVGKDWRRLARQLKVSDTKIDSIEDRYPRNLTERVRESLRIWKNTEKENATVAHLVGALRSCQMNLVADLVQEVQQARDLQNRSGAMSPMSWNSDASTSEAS

Target	thermal stability z-score (lipoamide; [1])	thermal stability z-score (lipoamide; arsenate co-treatment: none)	thermal stability z-score (potassium arsenate)
MBLAC2 (UniProt Q68D91)	-0.0603	0.367	0.708
HOMER1 (UniProt Q86YM7)	0.64	0.353	1.54
NKIRAS1 (UniProt Q9NYS0)	-0.202	-0.125	-0.0379
LSM8 (UniProt O95777)	1.17	0.47	-0.214
SLC1A3 (UniProt P43003)	-0.157	0.124	0.352
G3BP1 (UniProt Q13283)	0.523	0.664	0.753
PPHLN1 (UniProt Q8NEY8)	0.687	0.672	-0.137
WAPL (UniProt Q7Z5K2)	0.0171	0.484	-0.434
SLAIN2 (UniProt Q9P270)	0.251	0.508	-0.0239
GTF2E2 (UniProt P29084)	-0.693	-0.556	0.0275
CCPG1 (UniProt Q9ULG6)	-2.1	-2.44	0.351
MELK (UniProt Q14680)	-0.0697	-0.0146	-0.32
A0A0B4J2A0|SHPK	-0.157	-0.0688	-0.112
UPF3B (UniProt Q9BZI7)	-0.0795	0.00475	0.667
MFSD5 (UniProt Q6N075)	0.0483	0.442	0.661
HEG1 (UniProt Q9ULI3)	-0.842	1.15	0.868
PRELID1 (UniProt Q9Y255)	0.0933	-0.2	-0.054
RIPK1 (UniProt Q13546)	-0.595	-1.03	0.39
BRCC3 (UniProt P46736)	-0.0792	0.172	0.468
CNOT7 (UniProt Q9UIV1)	-0.248	0.895	1.32
PPFIA1 (UniProt Q13136)	-0.28	-0.239	0.263
MPP5 (UniProt Q8N3R9)	-0.0805	-0.0555	-0.004
TALDO1 (UniProt P37837)	0.471	0.557	0.839
POLR3A (UniProt O14802)	0.0126	-0.887	-1.69

Target	thermal stability z-score (lipoamide; [1])	thermal stability z-score (lipoamide; arsenate co-treatment: none)	thermal stability z-score (potassium arsenate)
HNRNPAB (UniProt Q99729)	0.89	0.554	-0.447
MRPL47 (UniProt Q9HD33)	-0.428	-0.0176	0.268
NDE1 (UniProt Q9NXR1)	0.584	0.266	0.0354
MIPEP (UniProt Q99797)	-0.162	0.0258	-0.271
POLR2A (UniProt P24928)	0.89	0.82	-0.684
PSEN2 (UniProt P49810)	-0.815	-1.79	-1.19
TCEB3 (UniProt Q14241)	-0.0069	0.00902	0.0043
FADD (UniProt Q13158)	-0.805	0.901	0.325
DFFA (UniProt O00273)	0.376	0.555	0.443
SEC14L1 (UniProt Q92503)	-0.149	-0.0215	-0.169
HACD3 (UniProt Q9P035)	-1.92	-0.722	-1.47
MALT1 (UniProt Q9UDY8)	-0.539	0.249	0.37
KCTD15 (UniProt Q96SI1)	-0.377	-0.174	-0.89
CAT (UniProt P04040)	0.883	1.41	0.346
H1F0 (UniProt P07305)	0.135	-0.22	-0.062
APOO (UniProt Q9BUR5)	0.803	0.64	0.23
TMCO4 (UniProt Q5TGY1)	-0.342	-0.363	-0.0739
ELMO2 (UniProt Q96JJ3)	-0.114	0.245	0.457
CRYZL1 (UniProt O95825)	-0.0756	-0.692	-0.358
UHRF1BP1 (UniProt Q6BDS2)	-0.235	0.193	0.149
MTMR10 (UniProt Q9NXD2)	-0.108	0.0107	-0.188
CCDC6 (UniProt Q16204)	-0.497	-0.185	-0.505
CKS1B (UniProt P61024)	0.525	0.603	0.573
MACF1	-0.0421	-0.0441	-0.308

Target	thermal stability z-score (lipoamide; [1])	thermal stability z-score (lipoamide; arsenate co-treatment: none)	thermal stability z-score (potassium arsenate)
MRPL15 (UniProt Q9P015)	-0.144	-0.0219	-0.33
DOK1 (UniProt Q99704)	0.221	-0.608	-0.45
STRAP (UniProt Q9Y3F4)	0.312	0.0419	-0.875
FLNC (UniProt Q14315)	0.266	0.657	0.567
TJP2 (UniProt Q9UDY2)	-0.259	-0.231	0.438
SRI (UniProt P30626)	1.28	0.78	0.177
ELP5 (UniProt Q8TE02)	-0.313	-0.364	0.489
KLF4 (UniProt O43474)	-0.157	-0.548	-1.07
TOM1 (UniProt O60784)	0.231	-0.536	0.244
ADAT3 (UniProt Q96EY9)	-0.293	0.276	-0.301
MICA (UniProt Q29983)	-1.72	-3.33	-0.775
MDH2 (UniProt P40926)	0.922	0.615	-0.963
MCAM (UniProt P43121)	0.197	-0.281	0.512
RPL5 (UniProt P46777)	0.172	0.132	-0.481
ECHS1 (UniProt P30084)	-0.919	-0.57	-1.22
RBMS1 (UniProt P29558)	-0.643	0.176	-0.265
COX15 (UniProt Q7KZN9)	-0.206	-0.206	0.257
OXA1L (UniProt Q15070)	-0.709	-0.369	-0.251
FANCA (UniProt O15360)	-0.0907	-0.00129	-0.103
CNOT1 (UniProt A5YKK6)	-0.186	0.0688	1.04
SF3A2 (UniProt Q15428)	-0.0843	-0.43	-0.0497
CSNK2A1 (UniProt P68400)	0.541	0.00111	0.489
POLD3 (UniProt Q15054)	-0.0475	0.44	-0.487
AP3B1 (UniProt O00203)	-0.0343	0.0807	0.404
